Where “and” joins values, the source holds several entries; their conditions need not be identical. Equal entries are not always repeated.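 Five compound concentrations were applied to cells in 96-well plates for 48 hours; endpoints were derived by simple linear interpolation of the resulting dose-response curve. GI50 = concentration required for 50% inhibition of growth. At the TGI there is no net growth.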
How the values were obtained:
Test in all cases: NCI tumour cell line growth inhibition, 48 h
SK-MEL-28 melanoma = tested on: SK-MEL-28 melanoma
HT29 colon = tested on: HT29 colon
DU-145 prostate = tested on: DU-145 prostate
M14 melanoma = tested on: M14 melanoma
DMS 273 small cell lung = tested on: DMS 273 small cell lung
MALME-3M melanoma = tested on: MALME-3M melanoma
SF-539 CNS = tested on: SF-539 CNS
MDA-MB-435 = tested on: MDA-MB-435
SK-MEL-2 melanoma = tested on: SK-MEL-2 melanoma
LXFL 529 NSCLC = tested on: LXFL 529 NSCLC

SMILES	TGI (SK-MEL-28 melanoma)	TGI (HT29 colon)	TGI (DU-145 prostate) [µM]	TGI (M14 melanoma)	TGI (DMS 273 small cell lung)	TGI (MALME-3M melanoma)	TGI (SF-539 CNS)	TGI (MDA-MB-435) [µM]	TGI (SK-MEL-2 melanoma)	TGI (LXFL 529 NSCLC) [µM]	GI50 (SK-MEL-28 melanoma) [µM]	GI50 (M14 melanoma) [µM]	GI50 (DMS 273 small cell lung) [µM]	GI50 (MALME-3M melanoma) [µM]	GI50 (SF-539 CNS) [µM]	GI50 (SK-MEL-2 melanoma) [µM]	GI50 (HT29 colon) [µM]	GI50 (LXFL 529 NSCLC) [µM]	GI50 (DU-145 prostate) [µM]	GI50 (MDA-MB-435) [µM]
COc1cc(OC(=O)c2ccccc2)cc2c1C(=O)C=CC2=O	34.5 µM	39.8 µM	34.4	32.5 µM	40.5 µM	27 µM	41.7 µM	12	40.4 µM	25.5										
CCOc1ccc2c(c1)[n+]([O-])c(-c1ccc(Cl)cc1)c(N)[n+]2[O-]	> 100 µM	> 100 µM		> 100 µM	> 100 µM	> 100 µM	> 100 µM		> 100 µM	> 100										
CC1CCC(NC(=O)N(CCCl)N=O)CC1 (stereo not given)	35.1 µM and 93.1 µM	109 µM	227	30.5 µM and 66.5 µM	82.3 µM and 74 µM	51.5 µM and 98.1 µM	43.8 µM and 62.3 µM	65.9	48.1 µM and 91.2 µM	28.7	18.8	14.3	26.6	26	18.9	20.4				
COc1cc(C[C@H]2c3cc(OC)c(OC)cc3CCN2C)c(Oc2cc3c(cc2OC)-c2c(OC)c(OC)cc4c2[C@H](C3)N(C)CC4)cc1OC	9.03 µM and 8.73 µM	17.4 µM and 14.6 µM	39.6	4.36 µM and 3.48 µM	27.6 µM and 28.1 µM	17 µM and 10.2 µM	16.2 µM and 9.41 µM	12.5	18.5 µM and 28.8 µM	23.6	2.94	1.9	14.6	5.39	3.97	14.9	4.05			
CN1C(=Nc2ccccc2)SC1=Nc1ccccc1	> 100 µM	> 100 µM		> 100 µM	> 100 µM	94.3 µM	> 100 µM		> 100 µM	> 100										
CCOc1ccccc1N1C(=O)C(=O)C(c2nc3ccccc3o2)C(=O)C1=O	> 100 µM	> 100 µM		> 100 µM	> 100 µM	> 100 µM	> 100 µM		> 100 µM	> 100										
COc1ccc2n[se]nc2c1	> 100 µM	> 100 µM		> 100 µM	> 100 µM	> 100 µM	54.3 µM		> 100 µM	> 100										
CN(C)CC/C(=N\Nc1ccc([N+](=O)[O-])cc1)c1ccccc1	25.3 µM	21.2 µM		30.8 µM	22.3 µM	39.9 µM	20.3 µM		28.2 µM	19.3										
Cc1ccc2nc(NC(=O)C(=O)C(C#N)c3nc4ccccc4s3)sc2c1 (stereo not given)	> 100 µM	> 100 µM		> 100 µM	> 100 µM	> 100 µM	40.7 µM		> 100 µM	> 100										
CCC[CH2][Sn]1([CH2]CCC)[O]C(=O)c2cccnc2[O]1	11.9 µM	19.5 µM		10.6 µM	11.3 µM	4.11 µM	4 µM		3.81 µM	2.22	3.92	3.11	2.37	1.56	1.87	1.71	5.97	0.849		
COc1cc(/C=C2/C(=O)N(C(=O)OCC(C)C)C(Cc3cc(OC)c(OC)c(C)c3OC)C(=O)N2Cc2ccccc2)c(OC)c(C)c1OC (stereo not given)	> 100 µM	> 100 µM		> 100 µM	> 100 µM	> 100 µM	> 100 µM		> 100 µM	> 100										
COC(=O)/C(C)=C(/CCC1(C)OCCO1)O[Si](C)(C)C		> 100 µM		> 100 µM	> 100 µM	> 100 µM	> 100 µM		> 100 µM	> 100										
COc1ccc(Br)c(N/N=C2\CCCNC2=O)c1	> 100 µM	> 100 µM		> 100 µM	> 100 µM	> 100 µM	> 100 µM		> 100 µM	> 100										
Oc1c(C(Nc2cccc3cccnc23)c2ccccc2)ccc2cccnc12 (stereo not given)					> 100 µM	> 100 µM	39 µM			> 100										
CC(=O)CC(=O)OC1CC(C)CCC1C(C)C (stereo not given)	> 100 µM	> 100 µM		> 100 µM	> 100 µM	> 100 µM	> 100 µM		78.8 µM	> 100										
COc1c(C)c2c(c(O)c1C/C=C(\C)CCC(=O)O)C(=O)OC2	> 100 µM	> 100 µM	> 100	> 100 µM	> 100 µM	> 100 µM	> 100 µM	> 100	> 100 µM	> 100	0.38	0.343		0.714	0.491	2	0.248		0.57	0.32
Cc1cc(O)c(C(C)C)cc1S(=O)(=O)O (tested in a mixture with another compound)		1.1 µM	2.45		> 100 µM			0.464	2.46 µM	> 100	0.634	0.296		0.774	0.319	0.502	0.337		0.363	0.171

SMILES	TGI (SK-MEL-28 melanoma)	TGI (HT29 colon)	TGI (DU-145 prostate) [µM]	TGI (M14 melanoma)	TGI (DMS 273 small cell lung)	TGI (MALME-3M melanoma)	TGI (SF-539 CNS)	TGI (MDA-MB-435) [µM]	TGI (SK-MEL-2 melanoma)	TGI (LXFL 529 NSCLC) [µM]	GI50 (SK-MEL-28 melanoma) [µM]	GI50 (M14 melanoma) [µM]	GI50 (DMS 273 small cell lung) [µM]	GI50 (MALME-3M melanoma) [µM]	GI50 (SF-539 CNS) [µM]	GI50 (SK-MEL-2 melanoma) [µM]	GI50 (HT29 colon) [µM]	GI50 (LXFL 529 NSCLC) [µM]	GI50 (DU-145 prostate) [µM]	GI50 (MDA-MB-435) [µM]
CCc1cc(C(=O)OC)cn1C(=N)c1ccc(Cl)cc1	> 100 µM	> 100 µM		> 100 µM	> 100 µM	> 100 µM	> 100 µM		> 100 µM	> 100										
OC(c1ccccc1)(c1ccccc1)c1ccncc1	> 100 µM	> 100 µM		> 100 µM	> 100 µM	> 100 µM	> 100 µM		> 100 µM	> 100										
Cc1cc2c(cc1C)N(C(=O)CCl)CC(=O)N2	14.8 µM	3.73 µM	10.2	8.35 µM		3.81 µM	10.9 µM	10.2	14.4 µM		3.89	2.2		1.81	3.44	4.2	2.01		3.49	2.67
CN(O)c1nc(N(C)O)nc(N2CCOCC2)n1	> 100 µM	> 100 µM	> 100	57 µM		> 100 µM	> 100 µM	> 100	> 100 µM		7.08	2.92		12.3	4.1	7.7	4.67		4.93	6.6
COc1ccc2cc(C(=O)/C=C/c3ccc(Cl)cc3Cl)ccc2c1	> 100 µM	51.3 µM	62.1	28 µM		> 100 µM	13.7 µM	17.7	95.7 µM		29.9	8.75		23.5	3.98	44.4	6.63		23	4.5
CC(C)[C@H](N)C(=O)N1CCC[C@H]1B(O)O	> 100 µM	> 100 µM	> 100	> 100 µM		> 100 µM	> 100 µM	> 100	> 100 µM		> 100	> 100		> 100	> 100	> 100	> 100		> 100	> 100
CCS(CC)(CC)CC1CCCC2=CCC(P(=O)(c3ccccc3)c3ccccc3)CC21 (stereo not given)	28.4 µM	22.8 µM		25.6 µM	26.4 µM	40 µM	27.3 µM		33.8 µM	22.4										
COC1CC(OS(=O)(=O)c2ccc([N+](=O)[O-])cc2)C(OC(=O)c2ccccc2)C(C)O1 (stereo not given)	> 100 µM	> 100 µM		> 100 µM	> 100 µM	> 100 µM	> 100 µM			> 100										
COc1cnc2c(c1)C(=O)c1c-2n(CCCn2ccnc2)c(=O)c2cc(F)ccc12	1.3 µM	0.226 µM	1.17	0.635 µM		0.619 µM	0.195 µM	0.832	0.449 µM		0.191	< 0.01		0.193	0.0245	0.232	0.013		< 0.01	0.121
Cc1ccc(S(=O)(=O)OC2CSS(=O)CC2OS(=O)(=O)c2ccc(C)cc2)cc1 (stereo not given)	29 µM	87.5 µM		27.4 µM	35.3 µM	27.8 µM	29.2 µM			27.7										
C#Cc1c(F)ccc2cc(O)cc(-c3ncc4c(N5CC6CCC(C5)N6)nc(OC[C@@]56CCCN5C[C@H](F)C6)nc4c3F)c12	29.1 µM	31 µM	28.6	29.6 µM		29.3 µM	27.2 µM	27.3	32.9 µM		15.6	14		15.5	14	16.9	9.99		14.9	13.6
O=[N+]([O-])c1cc(C(F)(F)F)cc([N+](=O)[O-])c1CCl	17.9 µM	4.03 µM		1.59 µM	2.62 µM	13.1 µM	9.23 µM		> 26.7 µM	0.639										
CCN(CC)CCCCNc1c2ccccc2[n+](C)c2c1[nH]c1ccccc12	0.539 µM	1.09 µM	11.5	4.64 µM		0.671 µM	1.74 µM	2.16	0.956 µM		0.201	1.41		0.217	0.473	0.31	0.229		0.182	0.6
CC(C)C1CC[C@@H](C)C[C@@]1(O)CC(N)=O (stereo not given in full)	> 100 µM	> 100 µM		> 100 µM	> 100 µM	> 100 µM	> 100 µM		> 100 µM	> 100										
CC(=O)OCC1OC(n2cnc(C(N)=S)c2N)C(OC(C)=O)C1OC(C)=O (stereo not given)	> 100 µM	> 100 µM	> 100	> 100 µM		> 100 µM	> 100 µM	> 100	> 100 µM											
O=C(O)C(SC(=S)c1ccc(C(=S)SC(C(=O)O)c2ccccc2)cc1)c1ccccc1 (stereo not given)	> 100 µM	> 100 µM		> 100 µM	> 100 µM	> 100 µM	> 100 µM		> 100 µM	> 100										
COc1cc2c(c(OC)c1OC)-c1ccc(SC)c(=O)cc1C(CO)C2 (stereo not given)		0.385 µM		< 0.01 µM					< 0.01 µM	> 100		< 0.01		< 0.01	< 0.01	< 0.01		< 0.01		

— PubChem BioAssay (NCI)
